The values that follow come from publication PMC11050087, “Polyphenols from Maackia amurensis Heartwood Protect Neuronal Cells from Oxidative Stress and Prevent Herpetic Infection” (International Journal of Molecular Sciences, 2024).

SMILES strings stand for the structures. Several values for one entry are separate records, joined by “and”; a condition that tells them apart may be missing. Equal entries are not always repeated.

The subject of assay [1] is 6-OHDA-treated Neuro-2a cells. Description: ROS analysis in 6-OHDA-treated cells (H2DCF-DA). It counts as cell-based, murine. Particulars: 6-OHDA 120 µM; for reduction of ROS levels in 6-OHDA-treated Neuro-2a cells: compound 1 µM. As to the method:
We studied the effect of polyphenolic compounds set on ROS levels in 6-OHDA-treated Neuro-2a cells (Figure 5a–d).
Figure 5 The effect of polyphenolic compounds isolated from M. amurensis heartwood on ROS levels in Neuro-2a cells treated with 6-OHDA (120 μM) (a–d). Polyphenolic compounds isolated from M. amurensis heartwood were used at concentrations 10, 1, 0.1 μM. The data are presented as means ± SEM of three independent replicates.
After 24 h of adhesion, Neuro-2a cells (5 × 10^4 cells/mL) were incubated with polyphenolic compounds at concentrations of 0.1, 1, and 10 µM for 1 h. Then, 120 µM of 6-OHDA or 1 mM of PQ were added to each well, and cells were incubated for 1 h. To study the ROS formation, 20 µL of 2,7-dichlorodihydrofluorescein diacetate solution (H2DCF-DA, Sigma-Aldrich, St. Louis, MO, USA) were added to each well, so that the final concentration was 10 µM. Then, the microplate was incubated for 30 min at 37 °C.

In assay [2] the test system is HSV-1. Description: Virucidal activity, CPE inhibition assay (HSV-1 pretreated with compounds). The assay is classed as cell-based, HSV-1 strain L2. Particulars: for IC50: Human alphaherpesvirus 1, virus pretreated with compound (virucidal), Vero cells, 100 TCID50/mL; for SI: ratio of CC50 to IC50, virucidal scheme.
Assay [3] deals with HSV-1. In words: Virucidal activity, RT-PCR assay (HSV-1 pretreated with compounds). The assay is classed as cell-based, HSV-1 strain L2. As to conditions: for Ct: 72 h; for −ΔCt: vs virus control; for activity at 0.1 µg/mL / activity at 1 µg/mL / activity at 10 µg/mL / log reduction at 0.1 µg/mL / log reduction at 1 µg/mL / log reduction at 10 µg/mL: Human alphaherpesvirus 1, 72 h; for activity at 0.1 µg/mL / activity at 1 µg/mL / activity at 10 µg/mL: read-out: 2^−ΔCt; for log reduction at 0.1 µg/mL / log reduction at 1 µg/mL / log reduction at 10 µg/mL: read-out: log10.

The term IC50 denotes the concentration at which inhibition is half-maximal. Regarding `Oc1ccc(/C=C/c2cc(O)cc(O)c2)cc1` [Compound 1, resveratrol], the “reduction of ROS levels in 6-OHDA-treated Neuro-2a cells” value (shortened to “reduction of ROS levels”) in assay [1] is reported as “approximately 15%”. The IC50 in assay [2] (CPE assay) is 9.6 µg/mL and 42.1 µM. Also, the SI in assay [2] is 12.8 ± 1.9. In assay [3] (0.1 µg/mL), the Ct is recorded as 18.1 ± 2.2 and the “−ΔCt” value is reported as 0. Also, in assay [3] (1 µg/mL), the Ct came to 20.4 ± 2.8 and the “−ΔCt” value is −2.3 ± 0.2. In assay [3] (10 µg/mL), the “anti-HSV-1 activity by RT-PCR (in words)” value is listed as “moderate anti-HSV-1 activity”, the Ct came out at 24.6 ± 2.9 and the “−ΔCt” value is −6.5 ± 0.8. For the same compound, in assay [3], the activity at 0.1 µg/mL came to 100%, the activity at 1 µg/mL was determined as 20.3 ± 2.4%, the activity at 10 µg/mL came out at 1.1 ± 0.14% and the log reduction at 0.1 µg/mL came to 0. Further, in assay [3], the log reduction at 1 µg/mL came to 0.7 ± 0.09 and the log reduction at 10 µg/mL turned out to be 1.9 ± 0.2.

`Oc1cc(O)cc(/C=C/c2ccc3c(c2)O[C@H](c2cc(O)cc(O)c2)[C@@H](c2ccc(O)c(O)c2)O3)c1` [Compound 9, maackin]: the IC50 in assay [2] (CPE assay) was 2.4 µg/mL and 4.9 µM. The SI in assay [2] was 112.3 and 112.3 ± 13.5. Further, in assay [3] (0.1 µg/mL), the Ct is 18.6 ± 2.4 and the “−ΔCt” value is listed as −0.50 ± 0.05. In assay [3] (1 µg/mL), the “inhibition of HSV-1 replication by RT-PCR (in words)” value was “inhibited the replication of HSV-1”, the Ct turned out to be 25.9 ± 2.8 and the “−ΔCt” value was −7.8 ± 0.9. In assay [3] (10 µg/mL), the “reduction in viral DNA” value is listed as 4.6 log10, the Ct worked out at 33.3 ± 4.3 and the “−ΔCt” value is on record as −15.2 ± 1.8. Further, in assay [3], the activity at 0.1 µg/mL stood at 70.7 ± 9.2%, the activity at 1 µg/mL came to 0.449 ± 0.06%, the activity at 10 µg/mL came to 0.00266 ± 0.0003% and the log reduction at 0.1 µg/mL worked out at 0.15 ± 0.02. Moreover, in assay [3], the log reduction at 1 µg/mL is 2.3 ± 0.3 and the log reduction at 10 µg/mL was determined as 4.6 ± 0.6.

As for `O=C1C[C@@H](c2ccc(O)cc2)Oc2cc(O)ccc21` [Compound 6, liquiritigenin], the “reduction of ROS levels” value in assay [1] is 15%. For the same compound, in assay [1] (compounds at 10, 1, 0.1 µM), the “effect on ROS levels in 6-OHDA-treated Neuro-2a cells (in words)” value is reported as “dose-dependent effect”. The “virucidal activity against HSV-1 (in words)” value in assay [2] (CPE assay, virus pretreated with compound) is reported as “did not show virucidal activity”. The “virucidal activity against HSV-1 by RT-PCR (in words)” value in assay [3] (0.1, 1 and 10 µg/mL) was “did not demonstrate virucidal activity”.

On to `Oc1ccc(/C=C/c2cc(O)cc3c2[C@H](c2cc(O)cc(O)c2)[C@@H](c2ccc(O)c(O)c2)O3)cc1` [Compound 13, scirpusin A], for which, in assay [1], the “reduction of ROS levels” value was 43%. The IC50 in assay [2] (CPE assay) is 2.6 µg/mL and 5.5 µM. Besides, in assay [3] (0.1 µg/mL), the Ct was 18.6 ± 2.4 and the “−ΔCt” value is −0.50 ± 0.05. Also, in assay [3] (1 µg/mL), the “inhibition of HSV-1 replication by RT-PCR (in words)” value is given as “inhibited the replication of HSV-1”, the Ct amounted to 25.8 ± 3.3 and the “−ΔCt” value is recorded as −7.7 ± 0.8. For the same compound, in assay [3] (10 µg/mL), the “reduction in viral DNA” value came to 3.9 log10, the Ct came out at 31.2 ± 3.7 and the “−ΔCt” value is on record as −13.1 ± 1.6. Further, in assay [3], the activity at 0.1 µg/mL is 70.7 ± 9.2%, the activity at 1 µg/mL was determined as 0.481 ± 0.06%, the activity at 10 µg/mL is 0.0114 ± 0.001% and the log reduction at 0.1 µg/mL amounted to 0.15 ± 0.02. In assay [3], the log reduction at 1 µg/mL is 2.3 ± 0.3 and the log reduction at 10 µg/mL was 3.9 ± 0.5.
